Results from US20240336868A1, “COMPOSITIONS COMPRISING ADAMANTYL ESTER-CONTAINING COMPOUNDS” (The Procter & Gamble Company, priority 2023, published 2024).

Type: physicochemical
Conditions: for Head-space: headspace above about 2E+06 ng/mL solution in isopropyl myristate (IPM); for Head-space / Air/IPM partition coef: 30° C., average of three replicates; for Air/IPM partition coef: in isopropyl myristate (IPM)
Protocol: Perfume headspace data is collected for various materials according to the method provided below.
The partition coefficients are calculated by determining the amount of PRM in the headspace above a solution with a known concentration using a GC/FID-MS (Agilent 7890 and 5977A MSD) with a thermal desorption unit (Gerstel MPS2) and Dynamic Headspace Sampler (Gerstel DHS). This technique allows for automated headspace collections using the MultiPurposeSampler (MPS). The PRMs of interest are prepared at a known concentration in isopropyl myristate (IPM) or propylene glycol monomethyl ether (DPM), and 1 mL is pipetted in a 20 mL headspace vial.
DHS Conditions: The sample is tempered in the unit at 30° C. A helium stream at 10 mls/min purges 20 mL of headspace containing the analytes above the sample onto the sorbent tube (TDU) containing 25 mg of TenaxTA 35/60 (Restek cat #25701).
TDU conditions: The sorbent tube is desorbed with a program starting at 30° C. solvent vent for 2 min then ramped at 720° C./min to 270° C. and held for 8 min. The analytes are refocused on a glass bead liner at −60° C. then desorbed at a rate of 12° C./s to 270° C. onto the GC column.
GC/MS conditions: Agilent 122-5532 UI column of 30 m×250 μm×0.25 μm and a flow rate of 1.5 mL/min is utilized. A temperature program of 50° C. to 280° C. with a 2 min hold and a ramp rate of 12° C./min is suitable. Scan or SIM mode MSD parameters with a solvent delay for the DPM are applied to achieve appropriate detection.
Analytical standards can be obtained from AK Scientific, Inc., Union City, CA 94587, USA. A stock solution is prepared at approximately 0.5 g/L. The stock solution is then diluted to 4 to 5 concentrations ranging from approximately 0.05 g/L to 0.00005 g/L. These standard solutions are then analyzed by GC/MS. This analysis is performed by using the same TDU desorption and GC/MS conditions described above with a 1 μL liquid injection onto the TDU tube instead of the DHS collection. The amount injected on column and the area responses of the target m/z are utilized to create a calibration plot with a linear fit.
Quantification of the headspace is performed by the PRM target m/z area response of the perfume component and the linear equation of the calibration plot.
Perfume headspace data is collected for various materials according to the Headspace Method provided above in the Test Methods section. The Air/Solvent partition coefficients are determined and indexed accordingly (e.g., where the partition coefficient for OTNE is set at 1.00).
Results for 2-adamantyl propanoate, 2-adamantyl acetate, and 2-methyl-2-adamantyl acetate in isopropyl myristate (IPM) are provided below in Table 1.

OTNE Indexed Air/IPM partition coefficient | Head-space [ng/mL] | Air/IPM partition coef | SMILES
8.30 | 0.1793 | 8.66E−08 ng/mL in air per ng/mL in IPM | CC(=O)OC1C2CC3CC(C2)CC1C3 (stereo not drawn) [2-adamantyl acetate]
5.47 | 0.1182 | 5.71E−08 ng/mL in air per ng/mL in IPM | CCC(=O)OC1C2CC3CC(C2)CC1C3 (stereo not drawn) [2-adamantyl propanoate]
8.67 | 0.1874 | 9.05E−08 ng/mL in air per ng/mL in IPM | CC(=O)OC1(C)C2CC3CC(C2)CC1C3 (stereo not drawn) [2-methyl-2-adamantyl acetate]
1.00 | 0.0216 | 1.04E−08 ng/mL in air per ng/mL in IPM | CC(=O)C1(C)CC2=C(CCCC2(C)C)CC1C (stereo not drawn) [OTNE, 1-(1,2,3,4,5,6,7,8-Octahydro-2,3,8,8-tetramethyl-2-naphthalenyl) ethanone, reference compound]
